Data on eleven compounds can be found in ChEMBL document CHEMBL5096159, “Annual review of LSD1/KDM1A inhibitors in 2020” (Eur J Med Chem, 2021).

Molecules are shown by their SMILES. Where only a bound is given, the exact number is not on record here.

The test system of series [1] is MDA-MB-231. Description: Antiproliferative activity against human MDA-MB-231 cells assessed as reduction in cell viability after 24 hrs by MTT assay. The format is functional, cell-based. The conditions noted are these: MDA-MB-231, 24 h.
Series [2] addresses T1, Lysine-specific histone demethylase 1A (Homo sapiens, UniProt O60341). Description: Inhibition of LSD1 (unknown origin) by Spectra Max Paradigm Microplate Reader analysis.
Series [3] concerns the target T1, Lysine-specific histone demethylase 1A. Kind of series: Inhibition of recombinant LSD1 (unknown origin) expressed in Escherichia coli BL21 using H3K4me2 as substrate preincubated for 10 mins followed by substrate addition and measured after 30 mins by fluorescence based analysis.
Series [4] shares this target. Description: Inhibition of recombinant LSD1 (unknown origin) using H3K4me2 as a substrate measured after 0.5 hrs by fluorescence based analysis.
Series [5] can be described thus: Cytotoxicity against human GES1 cells assessed as cell viability measured after 72 hrs by MTT assay. The format is toxicity, cell-based.
For series [6], the system named is MGC-803. Kind of series: Antiproliferative activity against human MGC-803 cells assessed as reduction in cell viability after 72 hrs by MTT assay. The conditions noted are these: MGC-803, 72 h. The format is functional, cell-based.
Series [7] deals with BGC-823. Kind of series: Antiproliferative activity against human BGC-823 cells assessed as reduction in cell viability incubated for 5 days by MTS assay. Format: functional, cell-based. To be noted: BGC-823, 120 h. For orientation: Tetrazolium assays rely on reduction of a dye to a coloured formazan, in cell work by metabolically active cells.

For the compound `O=C(/C=C/c1ccc(O)c2c1[C@H](C(=O)O[C@H](Cc1ccc(O)c(O)c1)C(=O)O)[C@@H](c1ccc(O)c(O)c1)O2)O[C@H](Cc1ccc(O)c(O)c1)C(=O)O`, the IC50 (in general, the concentration at which inhibition is half-maximal) worked out at 55 µM in series [1] and 0.11 µM in series [2].

`COc1ccc2cc3[n+](cc2c1OC)CCc1cc2c(cc1-3)OCO2` [BERBERINE]: in series [3], the concentration for half-maximal inhibition (IC50) turned out to be 6.97 µM.

With `COc1ccc(-c2coc3cc(O)cc(O)c3c2=O)cc1` [BIOCHANIN], the IC50 is 2.95 µM in series [4] and 6.77 µM in series [6]. The half-maximal inhibitory concentration (IC50) at 72 h in series [5] was above 32 µM.

In the case of `COc1cc(CNC(=O)CCCC/C=C/C(C)C)ccc1O` [CAPSAICIN], the IC50 in series [7] was 4.66 µM.

In the case of `COc1cc2c(cc1O)-c1cc3ccc(OC)c(OC)c3c[n+]1CC2` [COLUMBAMINE], the half-maximal inhibitory concentration (IC50) in series [3] came to 0.47 µM.

As to `C[C@H]1COC2=C1C(=O)C(=O)c1c2ccc2c1CCCC2(C)C` [CRYPTOTANSHINONE], in series [2], the IC50 was 9.02 µM.

In series [2], `Cc1cccc2c3c(ccc12)C1=C(C(=O)C3=O)[C@@H](C)CO1` [DIHYDROTANSHINONE I] showed an IC50 of 15.8 µM.

Consider `COc1cc2c(cc1O)CC[n+]1cc3c(OC)c(OC)ccc3cc1-2` [JATRORRHIZINE], for which the half-inhibitory concentration (IC50) in series [3] turned out to be 1.55 µM.

Take `COc1cc2c(cc1OC)-c1cc3ccc(OC)c(OC)c3c[n+]1CC2` [PALMITINE]: in series [3], the IC50 is 12.2 µM.

Take `O=C(/C=C/c1ccc(O)c(O)c1)O[C@H](Cc1ccc(O)c(O)c1)C(=O)O` [ROSMARINIC ACID]: the IC50 in series [2] was found to be 20.9 µM.

`Cc1coc2c1C(=O)C(=O)c1c-2ccc2c(C)cccc12` [TANSHINONE I] gave a half-maximal inhibitory concentration (IC50) in series [2] of 16.4 µM.
